From ChEMBL document CHEMBL1201862, “PubChem BioAssay data set” (2004)
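Compound exposure: 48 hours, 5 concentrations, 96-well plates. GI50 marks 50% less growth.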 Activity calls are given as the source filed them. Rule as the data show it: active = GI50 up to about 1.1 µM and inactive = higher.

Key:
Assay in all cases: growth of human tumour cells (NCI), 48 h
786-0 = tested on: 786-0
CAKI-1 = tested on: CAKI-1
DU-145 = tested on: DU-145
EKVX = tested on: EKVX
HCT-116 = tested on: HCT-116
HCT-15 = tested on: HCT-15
HOP-92 = tested on: HOP-92
HT-29 = tested on: HT-29
Hs-578T = tested on: Hs-578T
M14 = tested on: M14
MDA-MB-231 = tested on: MDA-MB-231
MDA-MB-435 = tested on: MDA-MB-435
NCI-H226 = tested on: NCI-H226
NCI-H460 = tested on: NCI-H460
NCI/ADR-RES = tested on: NCI/ADR-RES
OVCAR-4 = tested on: OVCAR-4
OVCAR-5 = tested on: OVCAR-5
SK-OV-3 = tested on: SK-OV-3
SNB-75 = tested on: SNB-75
TK-10 = tested on: TK-10

SMILES	GI50 (786-0)	GI50 (CAKI-1)	GI50 (DU-145)	GI50 (EKVX)	GI50 (HCT-116)	GI50 (HCT-15) [µM]	GI50 (HOP-92)	GI50 (HT-29)	GI50 (Hs-578T)	GI50 (M14)	GI50 (MDA-MB-231)	GI50 (MDA-MB-435)	GI50 (NCI-H226)	GI50 (NCI-H460)	GI50 (NCI/ADR-RES)	GI50 (OVCAR-4)	GI50 (OVCAR-5)	GI50 (SK-OV-3)	GI50 (SNB-75)	GI50 (TK-10)
Nc1nc(Cl)c(N)c(NCC2(CO)CC(Cc3ccccc3)C2)n1 (centres undefined)	> 91.4 µM (inactive)	> 100 µM (inactive)	> 100 µM (inactive)	3.2 µM (inactive)	3.15 µM (inactive)	> 79.3	> 77.3 µM (inactive)	70.6 µM (inactive)	> 39.8 µM (inactive)	55.2 µM (inactive)	61.4 µM (inactive)	16.6 µM (inactive)	> 31.8 µM (inactive)	> 55.5 µM (inactive)	15.1 µM (inactive)	48.1 µM (inactive)	> 100 µM (inactive)	> 100 µM (inactive)	> 85.3 µM (inactive)	> 100 µM (inactive)
Cc1ccc(C(=O)/C=C/N2CCN(c3cccc(C(F)(F)F)c3)CC2)cc1	18.2 µM (inactive)	17.8 µM (inactive)	16 µM (inactive)	18.7 µM (inactive)	16.7 µM (inactive)	15.6	27.1 µM (inactive)	17.9 µM (inactive)	24 µM (inactive)	16.9 µM (inactive)	14.6 µM (inactive)	16.9 µM (inactive)	16.9 µM (inactive)	21.7 µM (inactive)	17.9 µM (inactive)	43.7 µM (inactive)	21.4 µM (inactive)	35.1 µM (inactive)	16.9 µM (inactive)	25.3 µM (inactive)
C/C(=N\Nc1nc2ccccc2s1)c1cnccn1	2.13 µM (inactive)	0.256 µM (active)	4.34 µM (inactive)	0.146 µM (active)	1.5 µM (inactive)	0.625	1.51 µM (inactive)	0.175 µM (active)	2.33 µM (inactive)	0.685 µM (active)	0.757 µM (active)	6.01 µM (inactive)	0.247 µM (active)	1.77 µM (inactive)	1.74 µM (inactive)	16.7 µM (inactive)	3.33 µM (inactive)	2.08 µM (inactive)	2.8 µM (inactive)	–
CC1CN(CCO)CCN1c1ccccc1 (centres undefined)	> 100 µM (inactive)	> 100 µM (inactive)	> 100 µM (inactive)	> 100 µM (inactive)	> 100 µM (inactive)	> 100	> 100 µM (inactive)	> 100 µM (inactive)	> 100 µM (inactive)	> 100 µM (inactive)	> 100 µM (inactive)	> 100 µM (inactive)	> 100 µM (inactive)	> 100 µM (inactive)	> 100 µM (inactive)	> 100 µM (inactive)	> 100 µM (inactive)	> 100 µM (inactive)	> 100 µM (inactive)	> 100 µM (inactive)
CN(N=O)C(=O)N[C@H]1C(O)O[C@H](CO)[C@@H](O)[C@@H]1O (some centres undefined)	309 µM (inactive)	429 µM (inactive)	> 750 µM (inactive)	643 µM (inactive)	573 µM (inactive)	622	548 µM (inactive)	618 µM (inactive)	> 750 µM (inactive)	> 750 µM (inactive)	> 750 µM (inactive)	515 µM (inactive)	596 µM (inactive)	491 µM (inactive)	740 µM (inactive)	590 µM (inactive)	647 µM (inactive)	571 µM (inactive)	484 µM (inactive)	> 750 µM (inactive)
O[C@@H]1C=C[C@]23CCN(Cc4cc5c(cc42)OCO5)[C@@H]3C1	56.8 µM (inactive)	26.8 µM (inactive)	24.7 µM (inactive)	87.1 µM (inactive)	42.8 µM (inactive)	> 100	65.6 µM (inactive)	51.5 µM (inactive)	> 100 µM (inactive)	> 100 µM (inactive)	58.2 µM (inactive)	57 µM (inactive)	> 100 µM (inactive)	42.7 µM (inactive)	> 100 µM (inactive)	34 µM (inactive)	> 100 µM (inactive)	> 100 µM (inactive)	20.5 µM (inactive)	49.8 µM (inactive)
COc1cccc(N2C(=O)C3CC(CC(C)(C)C)c4c([nH]c5ccccc45)C3C2=O)c1 (centres undefined)	3.8 µM (inactive)	> 10 µM (inactive)	> 10 µM (inactive)	> 10 µM (inactive)	4.93 µM (inactive)	> 10	> 10 µM (inactive)	> 10 µM (inactive)	3.5 µM (inactive)	5.82 µM (inactive)	4.92 µM (inactive)	> 10 µM (inactive)	2.77 µM (inactive)	6.47 µM (inactive)	> 10 µM (inactive)	2.62 µM (inactive)	> 10 µM (inactive)	> 10 µM (inactive)	1.84 µM (inactive)	> 10 µM (inactive)
CCOC(=O)C1CCCCN1C(=O)Cc1c[nH]c2ccccc12 (centres undefined)	> 100 µM (inactive)	69.7 µM (inactive)	84.1 µM (inactive)	59.2 µM (inactive)	> 100 µM (inactive)	87.7	16 µM (inactive)	72.9 µM (inactive)	24.8 µM (inactive)	63.4 µM (inactive)	79.6 µM (inactive)	34.4 µM (inactive)	> 100 µM (inactive)	> 100 µM (inactive)	69.7 µM (inactive)	33.9 µM (inactive)	> 100 µM (inactive)	> 100 µM (inactive)	40 µM (inactive)	> 100 µM (inactive)
Cc1cc(=O)n2nc(CSc3nnc(Sc4cc(O)ccc4O)s3)sc2n1	41.3 µM (inactive)	> 100 µM (inactive)	> 100 µM (inactive)	99.3 µM (inactive)	19.7 µM (inactive)	> 100	35.4 µM (inactive)	> 100 µM (inactive)	44.9 µM (inactive)	79.1 µM (inactive)	34.9 µM (inactive)	18.5 µM (inactive)	> 100 µM (inactive)	> 100 µM (inactive)	> 100 µM (inactive)	54.7 µM (inactive)	> 100 µM (inactive)	> 100 µM (inactive)	> 100 µM (inactive)	> 100 µM (inactive)
COc1cc(NCCC2CCCCN2)c2ncccc2c1 (centres undefined)	> 82 µM (inactive)	> 77.1 µM (inactive)	> 76.9 µM (inactive)	> 100 µM (inactive)	36 µM (inactive)	> 74.3	60.8 µM (inactive)	41.7 µM (inactive)	> 96.4 µM (inactive)	21.5 µM (inactive)	34.8 µM (inactive)	26.4 µM (inactive)	> 63.8 µM (inactive)	39.7 µM (inactive)	> 100 µM (inactive)	> 70.5 µM (inactive)	> 100 µM (inactive)	> 100 µM (inactive)	60.3 µM (inactive)	> 73.6 µM (inactive)
O=C1C=C(c2ccccc2)O/C1=C/C(=O)c1ccc(Cl)cc1	15.9 µM (inactive)	14 µM (inactive)	37.3 µM (inactive)	90.4 µM (inactive)	16.4 µM (inactive)	22	19.2 µM (inactive)	18.2 µM (inactive)	22.1 µM (inactive)	19 µM (inactive)	17.2 µM (inactive)	15.2 µM (inactive)	> 10 µM (inactive)	20.2 µM (inactive)	22.1 µM (inactive)	15.6 µM (inactive)	17.6 µM (inactive)	36.1 µM (inactive)	10.6 µM (inactive)	20.2 µM (inactive)
C=C1CCC(O)C/C1=C/C=C1\CCCC2(C)C1CCC2C(C)CCCC(C)C (centres undefined)	16.7 µM (inactive)	19.8 µM (inactive)	20.9 µM (inactive)	19 µM (inactive)	15.2 µM (inactive)	17.1	17.7 µM (inactive)	15.3 µM (inactive)	17.6 µM (inactive)	18 µM (inactive)	19.9 µM (inactive)	16.3 µM (inactive)	16 µM (inactive)	20.4 µM (inactive)	18.2 µM (inactive)	18.1 µM (inactive)	20.3 µM (inactive)	22.8 µM (inactive)	17.4 µM (inactive)	12.3 µM (inactive)
O=C1CC(C(O)(C(F)(F)F)C(F)(F)Cl)CCC1C(O)(C(F)(F)F)C(F)(F)Cl (centres undefined)	> 10 µM (inactive)	> 10 µM (inactive)	> 10 µM (inactive)	> 10 µM (inactive)	7.19 µM (inactive)	> 10	1.26 µM (inactive)	5.78 µM (inactive)	> 10 µM (inactive)	> 10 µM (inactive)	> 10 µM (inactive)	> 10 µM (inactive)	> 10 µM (inactive)	> 10 µM (inactive)	> 10 µM (inactive)	> 10 µM (inactive)	> 10 µM (inactive)	> 10 µM (inactive)	8.71 µM (inactive)	> 10 µM (inactive)
CC1(C)CC2=C(SC3C=CC=CC3N2)C(=O)C1C(=O)C(N)=O (centres undefined)	> 100 µM (inactive)	> 100 µM (inactive)	> 100 µM (inactive)	> 100 µM (inactive)	> 100 µM (inactive)	> 100	> 100 µM (inactive)	> 100 µM (inactive)	> 100 µM (inactive)	> 100 µM (inactive)	> 100 µM (inactive)	> 100 µM (inactive)	91 µM (inactive)	> 100 µM (inactive)	> 100 µM (inactive)	> 100 µM (inactive)	> 100 µM (inactive)	> 100 µM (inactive)	> 100 µM (inactive)	> 100 µM (inactive)
